Reference: US20230373989A1, “N-PHENYLAMINOCARBONYL PYRIDINO-, PYRIMIDINO AND BENZO-TROPANES AS MODULATORS OF GPR65” (PATHIOS THERAPEUTICS LIMITED, priority 2020, published 2023)

Biological target: T1, human recombinant GPR65 (Homo sapiens, UniProt Q8IYL9)
T1 construct: host or cells: 1321N1 human astrocytoma cells (1321N1-hrGPR65)
Test: Human GPR65 cAMP HTRF antagonist assay
Type: cell-based
Conditions: not given
Method in brief: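 1321N1 astrocytoma cells stably expressing GPR65 were preincubated with compound for 30 min at room temperature in KRH pH 7.6 with 1 mM IBMX and 200 μM EDTA. They were then stimulated at assay pH 7.2 for 30 min, with controls at pH 7.9. cAMP was read by HTRF (665/620 nm), normalised to controls and fitted by 4-parameter logistic to give IC50.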

T1 sequence (Q8IYL9 whole entry): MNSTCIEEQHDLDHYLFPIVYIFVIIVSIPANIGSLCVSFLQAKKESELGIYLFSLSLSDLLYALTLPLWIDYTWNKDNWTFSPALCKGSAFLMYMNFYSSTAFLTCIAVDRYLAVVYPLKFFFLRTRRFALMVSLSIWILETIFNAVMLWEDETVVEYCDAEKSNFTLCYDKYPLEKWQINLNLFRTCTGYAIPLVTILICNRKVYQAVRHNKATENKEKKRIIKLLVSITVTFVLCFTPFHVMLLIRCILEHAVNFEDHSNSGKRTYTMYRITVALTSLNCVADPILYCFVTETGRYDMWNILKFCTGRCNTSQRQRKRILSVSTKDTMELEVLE

SMILES	IC50
O=C(Nc1ccc(Cl)c(Cl)c1)N1[C@@H]2CC[C@H]1[C@@H](F)c1cc(F)ncc12 [Compound 140, (5S,6S,9R)-N-(3,4-Dichlorophenyl)-3,5-difluoro-6,7,8,9-tetrahydro-5H-6,9-epiminocyclohepta[c]pyridine-10-carboxamide]	< 500 nM
O=C(Nc1ccc(F)c(Cl)c1)N1C2CCC1c1ccnc(F)c1C2 (racemic) [Compound 178, (±)-N-(3-Chloro-4-fluorophenyl)-1-fluoro-6,7,8,9-tetrahydro-5H-5,8-epiminocyclohepta[c]pyridine-10-carboxamide]	< 500 nM
O=C(Nc1cc(Cl)c(Cl)cc1F)N1C2CCC1c1c[nH]c(=O)c(F)c1C2 (racemic) [Compound 139, (±)-N-(4,5-Dichloro-2-fluorophenyl)-4-fluoro-3-oxo-3,5,6,7,8,9-hexahydro-2H-6,9-epiminocycloheptan[c]pyridine-10-carboxamide]	< 500 nM
COC(=O)c1cc(NC(=O)N2[C@H]3CC[C@@H]2c2ccnc(F)c2C3)c(F)cc1Cl [Compound 125, Methyl 2-chloro-4-fluoro-5-((5R,8S)-1-fluoro-6,7,8,9-tetrahydro-5H-5,8-epiminocyclohepta[c]pyridine-10-carboxamido)benzoate]	< 500 nM
O=C(Nc1cc(Cl)c(C(F)(F)F)cc1F)N1[C@@H]2CC[C@H]1c1ccc(F)nc1C2 [Compound 197, (5S,8R)-N-(5-Chloro-2-fluoro-4-(trifluoromethyl)phenyl)-2-fluoro-6,7,8,9-tetrahydro-5H-5,8-epiminocyclohepta[b]pyridine-10-carboxamide]	500 to 5000 nM
O=C(Nc1cc(Cl)c(C(F)(F)F)cc1F)N1[C@H]2CC[C@@H]1c1ccnc(F)c1C2 [Compound 101, (5R,8S)-N-(5-Chloro-2-fluoro-4-(trifluoromethyl)phenyl)-1-fluoro-6,7,8,9-tetrahydro-5H-5.8-epiminocyclohepta[c]pyridine-10-carboxamide]	< 500 nM
O=C(Nc1cc(Br)c(Cl)cc1F)N1[C@H]2CC[C@@H]1c1c[nH]c(=O)cc1C2 [Compound 142, (6S,9R)-N-(5-Bromo-4-chloro-2-fluorophenyl)-3-oxo-3,5,6,7,8,9-hexahydro-2H-6,9-epiminocyclohepta[c]pyridine-10-carboxamide]	< 500 nM
N#Cc1cc(Cl)c(Cl)cc1NC(=O)N1[C@H]2CC[C@@H]1c1c[nH]c(=O)cc1C2 [Compound 88, (6S,9R)-N-(4,5-Dichloro-2-cyanophenyl)-3-oxo-3,5,6,7,8,9-hexahydro-2H-6,9-epiminocyclohepta[c]pyridine-10-carboxamide]	< 500 nM
O=C(Nc1ccc(Cl)c(Cl)c1)N1[C@@H]2CC[C@H]1c1cnc(F)cc1C2 [Compound 198, (6R,9S)-N-(3,4-dichlorophenyl)-3-fluoro-6,7,8,9-tetrahydro-5H-6,9-epiminocyclohepta[c]pyridine-10-carboxamide]	500 to 5000 nM
O=C(Nc1cc(Cl)c(C(F)(F)F)cc1F)N1[C@H]2CC[C@@H]1c1c[nH]c(=O)c(F)c1C2 [Compound 146, (6S,9R)-N-(5-Chloro-2-fluoro-4-(trifluoromethyl)phenyl)-4-fluoro-3-oxo-3,5,6,7,8,9-hexahydro-2H-6,9-epiminocyclohepta[c]pyridine-10-carboxamide]	< 500 nM
O=C(Nc1ccc(C(F)(F)F)c(Br)c1)N1[C@H]2CC[C@@H]1c1ccnc(F)c1C2 [Compound 153, (5R,8S)-N-(3-Bromo-4-(trifluoromethyl)phenyl)-1-fluoro-6,7,8,9-tetrahydro-5H-5,8-epiminocyclohepta[c]pyridine-10-carboxamide]	< 500 nM
O=C(Nc1ccc(Br)c(Cl)c1)N1[C@H]2CC[C@@H]1c1c[nH]c(=O)cc1C2 [Compound 143, (6S,9R)-N-(4-Bromo-3-chlorophenyl)-3-oxo-3,5,6,7,8,9-hexahydro-2H-6,9-epiminocyclohepta[c]pyridine-10-carboxamide]	< 500 nM
O=C(Nc1ccc(Cl)c(Cl)c1)N1[C@H]2CC[C@@H]1c1ccnc(F)c1C2 [Compound 78, (5R,8S)-N-(3,4-Dichlorophenyl)-1-fluoro-6,7,8,9-tetrahydro-5H-5,8-epiminocyclohepta[c]pyridine-10-carboxamide]	< 500 nM

Same assay, conditions: 1321N1-hrGPR65 cells, assay pH 7.2, cAMP HTRF; read-out: hGPR65 IC50 (activity class)

SMILES	IC50
Nc1ccc2c(c1)CC1CCC2N1C(=O)Nc1ccc(Cl)c(Cl)c1 (racemic) [Compound 73, (±)-2-Amino-N-(3,4-dichlorophenyl)-6,7,8,9-tetrahydro-5H-5,8-epiminobenzo[7]annulene-10-carboxamide]	> 5000 nM
O=C(Nc1cc(Cl)c(Cl)cc1F)N1C2CCC1c1cnc(F)c(F)c1C2 (racemic) [Compound 137, (±)-N-(4,5-Dichloro-2-fluorophenyl)-3,4-difluoro-6,7,8,9-tetrahydro-5H-6,9-epiminocyclohepta[c]pyridine-10-carboxamide]	500 to 5000 nM
O=C(Nc1cc(Cl)cc(Cl)c1)N1C2CCC1c1cncnc1C2 (racemic) [Compound 4, (±)-N-(3,5-Dichlorophenyl)-6,7,8,9-tetrahydro-5H-5,8-epiminocyclohepta[d]pyrimidine-10-carboxamide]	500 to 5000 nM
Nc1cc2c(cn1)C1CCC(C2)N1C(=O)Nc1ccc(Cl)c(Cl)c1 (racemic) [Compound 62, (±)-3-amino-N-(3,4-dichlorophenyl)-6,7,8,9-tetrahydro-5H-6,9-epiminocyclohepta[c]pyridine-10-carboxamide]	> 5000 nM
O=C(Nc1ccc(F)c(C(F)(F)F)c1)N1C2CCC1c1cncnc1C2 (racemic) [Compound 5, (±)-N-(4-Fluoro-3-(trifluoromethyl)phenyl)-6,7,8,9-tetrahydro-5H-5,8-epiminocyclohepta[d]pyrimidine-10-carboxamide]	> 5000 nM
O=C(Nc1ccc(Cl)c(Cl)c1)N1C2CCC1c1ccc(O)cc1C2 (racemic) [Compound 57, (±)-N-(3,4-Dichlorophenyl)-2-hydroxy-6,7,8,9-tetrahydro-5H-5,8-epiminobenzo[7]annulene-10-carboxamide]	500 to 5000 nM
COc1cc2c(cn1)[C@H]1CC[C@@H](C2)N1C(=O)Nc1ccc(Cl)c(Cl)c1 [Compound 86, (6S,9R)-N-(3,4-Dichlorophenyl)-3-methoxy-6,7,8,9-tetrahydro-5H-6,9-epiminocyclohepta[c]pyridine-10-carboxamide]	> 5000 nM
O=C(Nc1cc(Cl)c(Cl)cc1F)N1C2CCC1c1cnncc1C2 (racemic) [Compound 193, (±)-N-(4,5-Dichloro-2-fluorophenyl)-6,7,8,9-tetrahydro-5H-5,8-epiminocyclohepta[d]pyridazine-10-carboxamide]	500 to 5000 nM
CC(C)(C)OC(=O)Nc1nccc2c1C1CCC(C2)N1C(=O)Nc1ccc(Cl)c(Cl)c1 (racemic) [Compound 82, tert-butyl ((±)-10-((3,4-dichlorophenyl)carbamoyl)-6,7,8,9-tetrahydro-5H-6,9-epiminocyclohepta[c]pyridin-1-yl)carbamate]	500 to 5000 nM
O=C(Nc1ccc(Cl)c(Cl)c1)N1C2CCC1c1c(ccnc1F)C2 (racemic) [Compound 68, (±)-N-(3,4-Dichlorophenyl)-1-fluoro-6,7,8,9-tetrahydro-5H-6,9-epiminocyclohepta[c]pyridine-10-carboxamide]	500 to 5000 nM
O=C(Nc1ccc(Cl)c(Cl)c1)N1C2CCC1c1cnc(C(F)(F)F)nc1C2 (racemic) [Compound 24, (±)-N-(3,4-Dichlorophenyl)-2-(trifluoromethyl)-6,7,8,9-tetrahydro-5H-5,8-epiminocyclohepta[d]pyrimidine-10-carboxamide]	> 5000 nM
